Results reported in patent EP4603105A1, “PHARMACEUTICAL COMPOSITION CONTAINING CYCLIC COMPOUND HAVING SELECTIVE KRAS INHIBITORY EFFECT AGAINST HRAS AND NRAS” (CHUGAI SEIYAKU KABUSHIKI KAISHA, priority 2022, dated 2024).
Where a SMILES comes first, the peptide text is derived from it. Bridges are numbered along the chain shown (N, C = ends). [ ]: non-standard residue; d: D form. hPhe(3-Cl-4-CF3) = N[C@@H](CCc1ccc(C(F)(F)F)c(Cl)c1)C(=O)O; NPrPhe(4-CF3) = CCCN[C@@H](Cc1ccc(C(F)(F)F)cc1)C(=O)O; NMeGly(cPent) = CN[C@H](C(=O)O)C1CCCC1; Pro(4,4-F2) = O=C(O)[C@@H]1CC(F)(F)CN1; NMeL = CN[C@@H](CC(C)C)C(=O)O; NMeA = CN[C@@H](C)C(=O)O; Aze = O=C(O)[C@@H]1CCN1; Ac4c = NC1(C(=O)O)CCC1; Sar = CNCC(=O)O

Legend:
HRAS wild-type protein = HRAS wild-type protein (Homo sapiens, UniProt P01112); assay: Binding to HRAS by surface plasmon resonance (SPR), KD and KD ratio to KRAS
Outline: (§1)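 Each cycle, GDP-bound biotin-Avi RAS was captured (~100–300 RU), compound concentrations were injected low to high for 75 s each at 100 µL/min, then the chip was regenerated. Buffer: HBS pH 7.4, 10 mM MgCl2, 10 µM GDP, 1 mM DTT, 4% DMSO; 30°C. KD from a 1:1 binding model.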

[1] = system: human lung cancer strain NCI-H441; type: cell-based
Outline: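 Signal came from […] measured per well once the reagent was added. Beforehand, cells were cultured at 37°C and 5% carbon dioxide on a compound series serially diluted in dimethyl sulfoxide.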

[2] = target: GDP-bound NRAS wild-type protein (Homo sapiens, UniProt P01111); assay: Binding to NRAS by surface plasmon resonance (SPR), KD and KD ratio to KRAS
Outline: as §1

[3] = ratio of KD value for HRAS wild-type protein to KD value for KRAS (SPR)
[4] = ratio of KD value for GDP-bound NRAS wild-type protein to KD value for KRAS (SPR)
[5] = ratio of KD for HRAS wild-type protein to KD for KRAS
[6] = ratio of KD for GDP-bound NRAS wild-type protein to KD for KRAS

Chain of HRAS wild-type protein (P01112 whole entry): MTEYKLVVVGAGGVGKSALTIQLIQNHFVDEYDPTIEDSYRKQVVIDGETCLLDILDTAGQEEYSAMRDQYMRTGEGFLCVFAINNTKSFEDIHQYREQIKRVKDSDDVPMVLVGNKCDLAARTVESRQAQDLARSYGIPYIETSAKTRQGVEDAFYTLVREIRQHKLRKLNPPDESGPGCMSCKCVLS
Chain of GDP-bound NRAS wild-type protein (P01111 whole entry): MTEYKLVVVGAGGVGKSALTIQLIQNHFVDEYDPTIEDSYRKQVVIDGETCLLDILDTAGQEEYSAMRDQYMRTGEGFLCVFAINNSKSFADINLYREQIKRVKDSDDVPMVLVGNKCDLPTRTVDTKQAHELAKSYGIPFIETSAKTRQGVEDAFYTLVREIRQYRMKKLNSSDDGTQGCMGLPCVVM

IC50 [1] [nM]	SMILES	HRAS /KRAS (HRAS wild-type protein; [3])	NRAS /KRAS [2, 4]	HRAS /KRAS (HRAS wild-type protein; [5])	NRAS /KRAS [2, 6]
2.3	CCO[C@@H]1C[C@H]2C(=O)NC3(CC(F)(F)C3)C(=O)N(C)[C@@H](C3CCCC3)C(=O)N(C)[C@H](C(=O)N(C)C)CC(=O)N(C)[C@@H](CC(C)C)C(=O)N[C@@H]([C@@H](C)CC)C(=O)N(C)CC(=O)N(C)[C@H]3C/C=C\CCN(C3=O)[C@@H](Cc3ccc(C(F)(F)F)cc3)C(=O)N(C)CC(=O)N[C@@H](CCc3cc(F)c(C(F)(F)F)c(F)c3)C(=O)N2C1 [PP1741]	B (a compound having 3 or more and less than 10 is denoted as B)	A (a compound having 10 or more and less than 20 is denoted as A)		
12.1	CCCN1C(=O)[C@@H]2CCN2C(=O)[C@H](C)N(C)C(=O)[C@H]([C@@H](C)CC)NC(=O)[C@H](CC(C)C)N(C)C(=O)C[C@@H](C(=O)N(C)C)NC(=O)[C@H](C2CCCC2)N(C)C(=O)C2(CCC2)NC(=O)[C@@H]2CC(F)(F)CN2C(=O)[C@H](CCc2ccc(C(F)(F)F)c(Cl)c2)NC(=O)CN(C)C(=O)[C@@H]1Cc1ccc(C(F)(F)F)cc1 [PP0382] ([NMeL]I[NMeA][Aze][NPrPhe(4-CF3)][Sar][hPhe(3-Cl-4-CF3)][Pro(4,4-F2)][Ac4c][NMeGly(cPent)]D-NMe2; lactam N-11)			B (a compound having 3 or more and less than 10 is denoted as B)	C (A compound having a KD ratio of 0.1 or more and less than 3 is denoted as C)
12.7	CCO[C@@H]1C[C@H]2C(=O)NC3(CCCC3)C(=O)N(C)[C@@H](C3CCCC3)C(=O)N(C)[C@H](C(=O)N3CCOCC3)CC(=O)N(C)[C@@H](CC(C)C)C(=O)N[C@@H]([C@@H](C)CC)C(=O)N(C)CC(=O)N(C)[C@H]3C[C@@H](C)CCN(C3=O)[C@@H](Cc3ccc(C(F)(F)F)cc3)C(=O)N(C)CC(=O)N[C@@H](CCc3cc(F)c(C(F)(F)F)c(F)c3)C(=O)N2C1 [PP1024]			B (a compound having 3 or more and less than 10 is denoted as B)	B (a compound having 3 or more and less than 10 is denoted as B)
7.1	C=CCCC[C@H]1C(=O)N[C@@H]([C@@H](C)CC)C(=O)N(C)CC(=O)N(C)[C@H]2CCCCN(C2=O)[C@@H](Cc2ccc(C(F)(F)F)cc2)C(=O)N(C)CC(=O)N[C@@H](CCc2cc(F)c(C(F)(F)F)c(F)c2)C(=O)N2C[C@H](OCC)C[C@H]2C(=O)N[C@](C)(CC=C)C(=O)N(C)[C@@H](C2CCCC2)C(=O)N(C)[C@H](C(=O)N2CCOCC2)CC(=O)N1C [PP0876]			C (A compound having a KD ratio of 0.1 or more and less than 3 is denoted as C)	C (A compound having a KD ratio of 0.1 or more and less than 3 is denoted as C)
5.1	CCCOC[C@H]1C(=O)N[C@@H]([C@@H](C)CC)C(=O)N(C)CC(=O)N(C)[C@H]2C/C=C\CCN(C2=O)[C@@H](Cc2ccc(C(F)(F)F)cc2)C(=O)N(C)CC(=O)N[C@@H](CCc2cc(F)c(C(F)(F)F)c(F)c2)C(=O)N2C[C@H](F)C[C@H]2C(=O)NC2(CC(C)(C)C2)C(=O)N(C)[C@@H](C2CCCC2)C(=O)N(C)[C@H](C(=O)N(C)CCC)CC(=O)N1C [PP1698]	A (a compound having 10 or more and less than 20 is denoted as A)	A (a compound having 10 or more and less than 20 is denoted as A)		
26.2	CC[C@H](C)[C@@H]1NC(=O)[C@H](CC)N(C)C(=O)C[C@@H](C(=O)N(C)C)N(C)C(=O)[C@H](C2CCCC2)N(C)C(=O)C2(CCCC2)N(C)C(=O)[C@@H]2C[C@@H](C)CN2C(=O)[C@H](CCc2cc(F)c(C(F)(F)F)c(F)c2)NC(=O)CN(C)C(=O)[C@H](Cc2ccc(C)cc2)N2CC/C=C\C[C@@H](C2=O)N(C)C(=O)[C@@H]2CCCN2C1=O [PP1814]	A (a compound having 10 or more and less than 20 is denoted as A)	A (a compound having 10 or more and less than 20 is denoted as A)		
